Measurements as given in patent publication US20180256673A1, “METHODS FOR TREATING FUNGAL INFECTIONS” (priority 2015, published 2018).
Several values for one entry are separate records, joined by “and”; a condition that tells them apart may be missing. Equal values may be shown once. Read-outs that look alike come from different tables or passages of the source. Starred links: 1 amine or outer side, 2 acyl side, 3 side chain; linkers in the order of their positions; H or OH if unused. Positions of bridges follow the written chain, without caps; N, C: chain ends. Non-standard residues stand in square brackets, D forms with d. Residues, ends and D or L forms follow the SMILES beside them. *: point of attachment. Orn(4R-OH,5R-OCH2CH2NMe3+) = C[N+](C)(C)CCO[C@@H](N[*:3])[C@H](O)C[C@H](N[*:1])C(=O)[*:2]; pTerphenylCO(4''-OnC5H11) = CCCCCOc1ccc(-c2ccc(-c3ccc(C(=O)*)cc3)cc2)cc1; hTyr(3S-OH,4S-OH) = N[C@H](C(=O)O)[C@H](O)[C@@H](O)c1ccc(O)cc1; Pro(3S-OH,4S-Me) = C[C@H]1CN[C@H](C(=O)O)[C@H]1O; Hyp = O=C(O)[C@@H]1C[C@@H](O)CN1

Experiments:
[1] = tested on: C. albicans vaginal isolates; assay: Susceptibility testing of VVC clinical isolates at pH 7 and 4 (CLSI M27-A3); format: cell-based, Candida albicans; conditions: for MIC90 / MIC: Candida albicans
C. albicans NRRL Y-477 [2] = format: cell-based, Candida albicans
Method: Spontaneous mutant selection. […] Three individual colonies from each strain were used to start cultures in RPMI. […] One milliliter aliquots were spread onto SDA plates containing drug with sterile glass beads. Starting viable count was enumerated by triplicate plating of serial dilutions of the starting inoculum. […] Glycerol stocks of putative mutant colonies were stored at −80° C. […] Spontaneous mutation frequencies were calculated by dividing the number of resistant colonies on a given plate by the starting inoculum plated. A subset of mutants (weighted heavily towards those selected with CMP1) were then evaluated by MIC and sequencing of FKS gene hot spot regions.

C. parapsilosis = assay: Antifungal susceptibility testing (CLSI M27-S4); conditions: WT (19 isolates); 24 hr
Method: Antifungal susceptibility testing. Antifungal susceptibility testing was performed in triplicate for a collection of 95 Candida strains (20 C. albicans, 20 C. glabrata, 2 C. dubliniensis, 15 C. krusei, 19 C. parapsilosis, and 19 C. tropicalis) that included 30 isolates showing an echinocandin resistance (ER) phenotype (caspofungin-resistant) in accordance with the guidelines described in the Clinical and Laboratory Standards Institute (CLSI) document M27-S4. […] Stock solutions of the drugs were kept at −86° C.

[3] = tested on: C. glabrata ATCC 90030, ATCC 2001; assay: microbe, parasite or virus in culture; format: cell-based, Candida glabrata; conditions: Nakaseomyces glabratus
[4] = tested on: azole-resistant C. albicans (R357); assay: Immunosuppressed rat model of vulvovaginal candidiasis, vaginal CFU; format: in vivo, Candida albicans; conditions: once daily for 3 days, intravaginal 0.1 mL/rat (Compound 1 as 3% gel)
C. albicans NRRL Y-477 [5] = assay: microbe, parasite or virus in culture; format: cell-based, Candida albicans; conditions: Candida albicans

CCCCCOc1ccc(-c2ccc(-c3ccc(C(=O)N[C@H]4C[C@@H](O)[C@@H](OCC[N+](C)(C)C)NC(=O)[C@@H]5[C@@H](O)[C@@H](C)CN5C(=O)[C@H]([C@@H](C)O)NC(=O)[C@H]([C@H](O)[C@@H](O)c5ccc(O)cc5)NC(=O)[C@@H]5C[C@@H](O)CN5C(=O)[C@H]([C@@H](C)O)NC4=O)cc3)cc2)cc1 [Compound 1] ({pTerphenylCO(4''-OnC5H11)}-[Orn(4R-OH,5R-OCH2CH2NMe3+)]T[Hyp][hTyr(3S-OH,4S-OH)]T[Pro(3S-OH,4S-Me)]; lactam 1-C)
Number of isolates at MIC 0.03 μg/mL ([1]; 60 VVC isolates, 48 h, pH 7): 29 | Number of isolates at MIC 0.06 μg/mL ([1]; 60 VVC isolates, 48 h, pH 7): 16 | Number of isolates at MIC 0.125 μg/mL ([1]; 60 VVC isolates, 48 h, pH 7): 9 | Number of isolates at MIC 0.25 μg/mL ([1]; 60 VVC isolates, 48 h, pH 7): 1 | Number of isolates at MIC 0.5 μg/mL ([1]; 60 VVC isolates, 48 h, pH 7): 1 | Number of isolates at MIC 1 μg/mL ([1]; 60 VVC isolates, 48 h, pH 7): 2 | Number of isolates at MIC […] ([1]; 60 VVC isolates, 48 h, pH 7): 2 | MIC90 ([1]; 48 h, pH 4): 0.5 mg/L | MIC ([1]; 48 h, pH 4, fluconazole-resistant isolate 1, pH 4, 48 h, read-out: MIC): 0.5 mg/L | MIC ([1]; 48 h, pH 4, fluconazole-resistant isolate 2, pH 4): 0.125 mg/L | MIC ([1]; 48 h, pH 4, fluconazole-resistant isolate 3, pH 4, 48 h, read-out: MIC): 0.5 mg/L | MIC ([1]; 48 h, pH 4, fluconazole-resistant isolate 4, pH 4, 48 h, read-out: MIC): 0.25 mg/L | MIC ([1]; 48 h, pH 4, fluconazole-resistant isolate 6, pH 4, 48 h, read-out: MIC): 0.5 mg/L | MIC ([1]; 48 h, pH 4, fluconazole-resistant isolate 7, pH 4, 48 h, read-out: MIC): 0.5 mg/L | MIC ([1]; 48 h, pH 4, fluconazole-resistant isolate 9, pH 4, 48 h, read-out: MIC): 1 mg/L | MIC90 ([1]; 48 h, pH 7): 0.125 mg/L | MIC ([1]; 48 h, pH 7, fluconazole-resistant isolate 1, pH 7, 48 h, read-out: MIC): 0.03 mg/L | MIC ([1]; 48 h, pH 7, fluconazole-resistant isolate 2, pH 7): 0.25 mg/L | MIC ([1]; 48 h, pH 7, fluconazole-resistant isolate 3, pH 7, 48 h, read-out: MIC): 0.03 mg/L | MIC ([1]; 48 h, pH 7, fluconazole-resistant isolate 4, pH 7, 48 h, read-out: MIC): 0.06 mg/L | MIC ([1]; 48 h, pH 7, fluconazole-resistant isolate 5, pH 7): 0.125 mg/L | MIC ([1]; 48 h, pH 7, fluconazole-resistant isolate 6, pH 7, 48 h, read-out: MIC): 0.03 mg/L | MIC ([1]; 48 h, pH 7, fluconazole-resistant isolate 7, pH 7, 48 h, read-out: MIC): 0.03 mg/L | MIC ([1]; 48 h, pH 7, fluconazole-resistant isolate 8, pH 7): 0.125 mg/L | MIC ([1]; 48 h, pH 7, fluconazole-resistant isolate 9, pH 7, 48 h, read-out: MIC): 1 mg/L | MIC ([1]; 48 h, pH 7, fluconazole-resistant isolate 10, pH 7): 0.125 mg/L | MIC90 ([1]; 60 isolates, pH 4, 24 h, read-out: MIC90): 0.25 mg/L | MIC90 ([1]; 60 isolates, pH 7, 24 h, read-out: MIC90): 0.06 mg/L | Median mutation frequency (C. albicans NRRL Y-477 [2]): 5.00E−08 | Plate concentration (C. albicans NRRL Y-477 [2]; SDA, minimum concentration to cleanly inhibit growth): 0.06 µg/mL | Freq. (replicate mutation frequency) (C. albicans NRRL Y-477 [2]; replicate plates 1-3, listed as CMP1): 5.00E−08 and 2.27E−08 and 5.47E−08 | MIC median (range) (C. parapsilosis): 2 (2-4) mg/L | MIC ([3]; 48 h, ATCC 90030 P20-1, selecting drug ANID, Fks2 HS1 D666I, 48 h read): 2 mg/L | MIC ([3]; ATCC 2001 P20-2, selecting drug CAS): 2 mg/L | MIC ([3]; ATCC 2001 P20-2, selecting drug CMP1): 1 mg/L | MIC ([3]; ATCC 90030 P20-2, selecting drug CMP1): 1 mg/L | MIC ([3]; read-out: MIC P20, ATCC 2001, total population after 20 passages with the selecting drug, MIC of selecting drug): 1 mg/L | MIC ([3]; read-out: MIC P20, ATCC 90030, total population after 20 passages with the selecting drug, MIC of selecting drug): 1 mg/L | reduction in vaginal CFU compared with no treatment control ([4]; a week later, 8 days after treatment end (day 12)): > 3 log-fold | reduction in vaginal CFU compared with no treatment control ([4]; one day after treatment end (day 5)): 3.8 log-fold | MIC (C. albicans NRRL Y-477 [5]; NRRLY477, 48 h, NRRL Y-477 P20-1, selecting drug ANID, Fks1 HS1 S645Y, 48 h read): 2 mg/L | MIC (C. albicans NRRL Y-477 [5]; NRRLY477, 48 h, NRRL Y-477 P20-1, selecting drug CMP1, 48 h read): 0.25 mg/L | MIC (C. albicans NRRL Y-477 [5]; NRRLY477, NRRL Y-477 P20-1, selecting drug CAS): 0.03 mg/L | MIC (C. albicans NRRL Y-477 [5]; NRRLY477, read-out: MIC P20, NRRL Y-477, total population after 20 passages with the selecting drug, MIC of selecting drug): 0.25 mg/L
